Patent publication US20150167062A1, “Genome-wide Method of Assessing Interactions Between Chemical Entities And Their Target Molecules” (Whitehead Institute for Biomedical Research, priority 2012, published 2015)

Test system: MM1.S cells, merged BRD4/JQ1 genomic regions
Assay: Specificity analysis: overlap between JQ1 Chem-Seq and BRD4 ChIP-Seq data
Format: binding, human
Experimental: Chemical crosslinking was terminated by addition of TRIS buffer, pH 7.5, to a final concentration of 300 mM TRIS. Cells were harvested using a silicon scraper, centrifuged and the derived pellets washed three times with PBS. Cell nuclei were prepared as follows: cells were lysed in 50 mM HEPES, pH 7.5, 140 mM NaCl, 1 mM EDTA, 10% Glycerol, 0.5% NP-40, 0.25% Triton X-100 plus protease inhibitor cocktail ‘complete’ (Roche), and cell nuclei were washed once with 10 mM Tris-HCL, pH 8.0, 200 mM NaCl, 1 mM EDTA, 0.5 mM EGTA and protease inhibitors. […] Finally, purified DNA fragments were massively parallel sequenced and the sequencing data analyzed as described (33). […]
All ChIP-Seq and Chem-seq datasets were aligned using Bowtie (version 0.12.2) (35) to build version NCBI36/HG18 of the human genome. […] To obtain the normalized read density of ChIP-Seq datasets in any region, ChIP-Seq reads aligning to the region were extended automatically by MACS and the density of reads per basepair (bp) was calculated. The density of reads in each region was normalized to the total number of million mapped reads producing read density in units of reads per million mapped reads per by (rpm/bp).
Chem-Seq and ChIP-Seq data was analyzed to identify genomic regions with substantial JQ 1 Chem-Seq signal but no significant BRD4 ChIP-Seq signal, reasoning these sites might represent off-target interactions of JQ1. […]

Cc1sc2c(c1C)C(c1ccc(Cl)cc1)=N[C@@H](CC(=O)OC(C)(C)C)c1nnc(C)n1-2 [JQ1]
Off-target interaction (JQ1 Chem-Seq signal at regions of the genome without BRD4) (MM1.S cells, GLM differential binding analysis): no identifiable off-target interaction | Genomic regions with significant differences in JQ1 Chem-Seq and BRD4 ChIP-Seq signals (out of 25,060 merged regions, FDR<=0.25, MM1.S cells): 10 regions
